Experimental data as given in a melting point compilation (Tetko et al.; mined from patent text by program, amines drawn as free bases though some values may be those of a salt).

With `O=C(Cn1c(-c2cccnc2)ncc(NC(=O)OCc2ccccc2)c1=O)NC(Cc1ccccc1)C(=O)C(F)(F)F` (centres undefined) the melting point was 88 to 91 °C. Compound `NCCc1ccc(OCC2CCCO2)c(S(N)(=O)=O)c1` (centres undefined) has a melting point of 135 to 140 °C. For `CC(=O)Nc1nc(/C=C\c2ccc([N+](=O)[O-])cc2)cs1`, the melting point was 155 to 157 °C. Work on `Nc1c(Nc2ccon2)cnc2c1COCC2` yielded a melting point of 209 to 211 °C. `CS(=O)(=O)c1ccc(-c2cnn(CC(F)=C(F)F)c(=O)c2-c2ccc(F)cc2)cc1` showed a melting point of 154 to 156 °C. In the case of `C=C1CSC2C(NC(=O)COc3ccccc3)C(=O)N2C1C(=O)O` (centres undefined), the melting point is reported as 185 to 188 °C. In the case of `NS(=O)(=O)c1ccc(N2C(=O)CN(c3ccccc3)C2=O)c(Cl)c1`, the melting point is reported as 241 to 243 °C. In the case of `COc1ccc(CC2=C(C)N=NC2=O)cc1OC1CCCC1`, the melting point is reported as 186 to 187 °C. `COc1ccc(N2CCN(c3c(C)c(C)c4c(c3C)C(OCc3ccc(C)cc3)C(C)(C)O4)CC2)cc1` (centres undefined) showed a melting point of 84 to 85 °C. Compound `Cc1ccc(S(=O)(=O)N2CCC3(C=Cc4ccccc43)CC2)cc1` has a melting point of 168 to 170 °C. Work on `COc1ccc(-c2cc(=O)n(Cc3c(Cl)cccc3Cl)nc2-c2ccc(OC)cc2)cc1` yielded a melting point of 144 °C. Compound `N#Cc1ccc2c(c1)C(=C(Cl)Cl)OC(=C(Cl)Cl)O2` has a melting point of 167 to 168 °C. Work on `CCCCCCCCCOc1ccc(-c2ccc(C3CCC(C#N)(CCCCCCCCC)CC3)cc2)cc1` (centres undefined) yielded a melting point of 86 °C. `Cc1ccccc1-c1cc2cc(O)c(Cl)c(Cl)c2s1` showed a melting point of 106 to 107 °C. `O=C(O)CCCCCCCSc1ccc(Cl)cc1` gave a melting point of 92 to 93 °C. With `Cc1c(NC(=O)C(CSC(=O)c2ccccc2)Cc2ccccc2)cccc1C(=O)O` (centres undefined) the melting point was 204 to 205 °C. In the case of `COc1cc(OC)c2c(=O)[nH]c(-c3cc(C)c(OCCN4CCN(C)CC4)c(C)c3)nc2c1`, the melting point is reported as 180 to 182 °C. In the case of `Cc1cccc(C)c1Oc1nc(Cl)nc(Oc2c(C)cccc2C)n1`, the melting point is reported as 161 to 162 °C. With `Fc1ccc2[nH]cc(C3=CCN(CC4COc5ccc6c(c5O4)OCCC6)CC3)c2c1` (centres undefined) the melting point was 146 to 148 °C. Compound `CC(C)(C)OC(=O)NCC(=O)N1[C@@H](C(=O)OC(C)(C)C)C[C@H](S(=O)(=O)c2ccccc2)[C@H]1c1ccccc1F` (racemic) has a melting point of 134 °C. `COC(=O)c1ccccc1NC(=O)C=C(c1ccc(Cl)cc1)c1ccc(Cl)cc1` showed a melting point of 141 to 143 °C. In the case of `CCOc1ccc(Oc2c([N+](=O)[O-])cc(C(=O)OC)cc2[N+](=O)[O-])cc1`, the melting point is reported as 101 to 103 °C. With `CCc1nc2c(o1)C(=O)C(C)=C(NCCN(C)C)C2=O` the melting point was 135 °C. `COc1ccccc1OC(c1ccccc1)C(O)CN` (centres undefined) showed a melting point of 80 to 110 °C. In the case of `CC(c1ccccc1Cl)n1cnc2cnc3ccccc3c21` (centres undefined), the melting point is reported as 156 to 158 °C. Work on `CCc1nc2c(N)nc3ccccc3c2n1CC1(O)CCCC1` yielded a melting point of 210 °C. With `O=S(=O)(c1ccc(Cl)cc1)C(c1ccncc1)C1CCOCC1` (centres undefined) the melting point was 208 to 209 °C. Work on `C#CC12CC3CC(C1)CC(C14CC5CC(CC(C#C)(C5)C1)C4)(C3)C2` yielded a melting point of 208 to 210 °C. `CN(C)Cc1ccc([C@H]2CC[C@H](OC(=O)c3ccc(Cl)cc3)CC2)cc1` showed a melting point of 94 to 95 °C. `NCC1Cc2c(F)c(F)cc(-c3ccccc3)c2O1` (centres undefined) showed a melting point of over 240 °C. `CCOC(=O)C(=Cc1cccc(O)c1)C(=O)OCC` gave a melting point of 72 to 74 °C. Compound `c1ccc(-n2c(Cc3ccccn3)nc3ccccc32)cc1` has a melting point of 106 to 108 °C. Work on `COc1ccc(-c2cc(C(F)(F)F)nn2-c2ccc(S(N)(=O)=O)c(F)c2)cc1` yielded a melting point of 130 to 131 °C. In the case of `CN(C)Cc1c[nH]c2ccc(Br)cc12`, the melting point is reported as 139 °C. `CC(C)Oc1cc(CCCOc2ncccc2CC(=O)O)n(Cc2ccc(Cl)cc2Cl)n1` showed a melting point of 88 to 90 °C. `O=Cc1ccc2noc(-c3cccc(Cl)c3)c2c1` gave a melting point of 148 °C. For `N#Cc1ccc(-c2cccc(C=O)c2O)cc1`, the melting point was 120 to 121 °C. With `C=CC(=O)NC1CCCCC1` the melting point was 109 to 110 °C. In the case of `COC(=O)c1cc(C(=O)N2CCSCC2)c2cc(Cc3ccc(F)cc3)cnc2c1O`, the melting point is reported as 184 to 185 °C.
